Tests used:
[1] = molecular target: T1, Abscisic acid 8'-hydroxylase 3 (Arabidopsis thaliana, UniProt Q9FH76); assay: Inhibition of recombinant CYP707A3 at 50 uM
T1 sequence (Q9FH76 whole entry): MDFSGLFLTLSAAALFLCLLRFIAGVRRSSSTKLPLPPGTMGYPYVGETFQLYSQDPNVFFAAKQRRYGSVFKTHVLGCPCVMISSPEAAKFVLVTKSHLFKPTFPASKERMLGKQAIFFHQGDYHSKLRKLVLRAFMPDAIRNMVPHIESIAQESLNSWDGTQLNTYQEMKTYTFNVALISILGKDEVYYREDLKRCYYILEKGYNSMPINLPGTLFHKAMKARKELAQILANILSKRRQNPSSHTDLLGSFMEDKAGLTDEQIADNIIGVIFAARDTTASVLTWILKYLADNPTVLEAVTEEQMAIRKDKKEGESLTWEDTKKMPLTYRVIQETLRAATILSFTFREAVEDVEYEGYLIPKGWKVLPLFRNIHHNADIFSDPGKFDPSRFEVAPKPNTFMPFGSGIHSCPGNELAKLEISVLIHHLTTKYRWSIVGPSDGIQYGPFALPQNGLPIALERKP

[2] = molecular target: T1, Abscisic acid 8'-hydroxylase 3; assay: Inhibition of recombinant CYP707A3 at 5 uM

CC(=C/C(=O)O)/C=C/[C@@]1(O)C(C=O)=CC(=O)CC1(C)C
inhibition at 50 µM [1]: 63% | inhibition at 5 µM [2]: 15%

CC(=C/C(=O)O)/C=C/[C@H]1C(CO)=CC(=O)CC1(C)C
inhibition at 50 µM [1]: 24% | inhibition at 5 µM [2]: 0%

CC(=C/C(=O)O)/C=C/[C@@]1(O)C(CO)=CC(=O)CC1(C)C
inhibition at 50 µM [1]: 0% | inhibition at 5 µM [2]: 0%
